Experimental data: patent US20240299384A1, “METHODS FOR TREATING PULMONARY HYPERTENSION IN PATIENTS WITH LEFT VENTRICULAR ASSIST DEVICE IMPLANTATION” (ACTELION PHARMACEUTICALS LTD, priority 2021, published 2024)

Key:
Assay type in all cases: in vivo, human
[1] = test system: patients with PH post-LVAD implantation; assay: Phase 2 placebo-controlled study in PH post-LVAD implantation: right heart catheterization hemodynamics (PVR by thermodilution)
Protocol: (§1) This is a double-blind, placebo-controlled, multicenter, parallel-group Phase 2 study assessing the efficacy and safety of macitentan in PH post-LVAD implantation. Approximately 57 adult patients with PH post-LVAD implantation were randomized (1:1) to receive either macitentan 10 mg, or matching placebo, once daily orally.
After implantation of the LVAD, patients meet baseline hemodynamic criteria of PH via RHC during the last measurement prior to the first dose of drug, defined as mPAP≥25 mmHg at rest and PAWP≤18 mmHg and PVR>3 WU. Patients are randomized within 90 days of surgical implantation of LVAD and within 14 days of Baseline RHC.
• (i) Primary efficacy endpoint: The primary efficacy endpoint is PVR ratio of Week 12 to Baseline. PVR is obtained by the thermodilution method. See, Table 7 for the FAS, Table 8 for the ES, and Table 9 for the PPS.
An RHC conducted prior to signing the Informed Consent may be accepted as the Baseline RHC. Baseline RHC is performed by the thermodilution method, after LVAD implantation and prior to first dose of treatment (which occurs within 90 days post-surgical implantation of LVAD). Randomization (Visit 2) is within 14 days of Baseline RHC. Patients are excluded if they were treated with ERAs, PDE5 inhibitors, i.v., s.c., or oral prostanoids, or guanylate cyclase stimulators within 7 days prior to Baseline RHC or treatment initiation. Patients are excluded if they were treated with inhaled prostanoids (e.g., iloprost, epoprostenol), nitric oxide or i.v. inotropes or vasopressors within 24 h prior to Baseline RHC or treatment initiation. LVAD pump speed/flow rate may be adjusted during the treatment period and during the Baseline RHC.
An RHC is repeated at Week 12, or within 7 days of permanent discontinuation of treatment if prior to Week 12. The Week 12 RHC is performed by the thermodilution method, and not within 24 h of treatment with i.v. inotropes or vasopressors.
The following variables also are measured: pulse rate, PAWP, mRAP, systolic/diastolic/mean PAP, CO, and SVO2 and non-invasive mean, SBP and DBP if available. PVR is calculated. CO measurements, and PVR calculations, during both Baseline and Week 12 RHC is obtained via the thermodilution method. All primary end point calculations is based on thermodilution method-calculated PVR.
The following hemodynamic variables are calculated: PVR, TPR, and CI.
The primary efficacy variable is PVR ratio of Week 12 to Baseline. PVR [WU] is calculated as (mPAP-PAWP)/CO.
The ratio of Week 12 to Baseline PVR is log-transformed (base e) and analyzed using an analysis of covariance (ANCOVA) with a factor for treatment group and a covariate for Baseline log PVR (macitentan vs. placebo). The treatment group difference (on log scale) and its 95% CLs are estimated based on the model. The geometric mean ratio (GMR; macitentan vs. placebo) and its 95% confidence interval are obtained by exponentiation. The null hypothesis is rejected if the entire 95% confidence interval is below one.
The treatment effect is expressed as (GMR-1)×100%, where a negative value indicates a reduction of PVR in the macitentan group as compared to the placebo group.

[2] = test system: patients with PH post-LVAD implantation; assay: Phase 2 study in PH post-LVAD implantation: serum NT-proBNP; details: 10 mg once daily
Protocol: as §1
A blood sample is drawn at Randomization (Visit 2) and EOT (Visit 5) for the analysis of serum NT-proBNP. See, Table 12 for serum NT-proBNP at Week 12 compared to baseline for the FAS.
NT-proBNP is summarized by time point and treatment group using descriptive statistics as well as geometric means and CVs. The ratio of Week 12 to Baseline NT-proBNP is summarized similarly. The ratio versus Baseline in NT-proBNP is log-transformed and analyzed using an ANCOVA with covariates for treatment group and Baseline log NT-proBNP.

[3] = test system: patients with PH post-LVAD implantation; assay: Phase 2 study in PH post-LVAD implantation: change in WHO functional class
Protocol: as §1
Change from Baseline to Week 12 in WHO FC. See, Table 10.
WHO FC is summarized by time point and treatment group using frequency tables. Changes from Baseline in WHO FC are dichotomized as worsening (i.e., change >0) versus no change or improvement (i.e., change≤0). Worsening is analyzed using a logistic regression model with covariates for treatment group and WHO FC.

[4] = 10 mg once daily, Week 12: Baseline, FAS, n 27
[5] = 10 mg once daily, post-hoc analysis
[6] = PVR calculated by programming, ES sensitivity analysis, 10 mg once daily, Week 12
[7] = PVR calculated by programming, PPS sensitivity analysis, 10 mg once daily, Week 12
[8] = PVR calculated by programming, primary analysis, FAS, 10 mg once daily, Week 12
[9] = PVR reported by INV, sensitivity analysis, FAS, 10 mg once daily, Week 12
[10] = FAS, N = 25, baseline to Week 12

`CCCNS(=O)(=O)Nc1ncnc(OCCOc2ncc(Br)cn2)c1-c1ccc(Br)cc1` [Macitentan, propylsulfamic acid [5-(4-bromo-phenyl)-6-[2-(5-bromo-pyrimidin-2-yloxy)-ethoxy]-pyrimidin-4-yl]-amide] was tested. Which “DPG, Least squares mean change from baseline” value ([1]; 10 mg once daily, Day 84 or EOT, FAS, n 23) did it give?
The value was −6.0383 mmHg.

And the “TPG, Least squares mean change from baseline” value ([1]; 10 mg once daily, Day 84 or EOT, FAS, n 24)?
The value was −7.6521 mmHg.

What about the “Change in CI, Comparison to Placebo, Difference of least squares mean” value ([1]; 10 mg once daily, FAS) of the same compound?
The value was 0.1209 L/min/m^2.

And the “Change in CO, Comparison to Placebo, Difference of least squares mean” value ([1]; 10 mg once daily, FAS)?
The value was 0.2064 L/min.

What about the “Change in DPG, Comparison to Placebo, Difference of least squares mean” value ([1]; 10 mg once daily, FAS) of the same compound?
Its value is −2.7136 mmHg.

And the “Change in PAWP, Comparison to Placebo, Difference of least squares mean” value ([1]; 10 mg once daily, FAS)?
Its value is 2.3514 mmHg.

What about the “Change in SvO2, Comparison to Placebo, Difference of least squares mean” value ([1]; 10 mg once daily, FAS) of the same compound?
The value was 0.4285%.

What about the “Change in TPG, Comparison to Placebo, Difference of least squares mean” value ([1]; 10 mg once daily, FAS) of the same compound?
The value was −2.7022 mmHg.

What about the “Change in TPR, Comparison to Placebo, Difference of least squares mean” value ([1]; 10 mg once daily, FAS) of the same compound?
Its value is −0.4422 mmHg min/L.

What about the “mPAP (end-expiratory mean line), Comparison to Placebo, Difference of least squares mean” value ([1]; 10 mg once daily, FAS) of the same compound?
The value was −0.3052 mmHg.

What about the “mRAP, Comparison to Placebo, Difference of least squares mean” value ([1]; 10 mg once daily, FAS) of the same compound?
Its value is 2.1396 mmHg.

What about the “DPG at Day 84 or EOT, mean (SD)” value ([1]; 10 mg once daily, FAS, n 23) of the same compound?
The value was 3.87 (5.619) mmHg.

And the “Change in CI at Day 84 or EOT compared to Baseline, Least squares mean” value ([1]; 10 mg once daily, FAS, n 24)?
Its value is 0.1284 L/min/m^2.

What about the “Change in CO at Day 84 or EOT compared to Baseline, Least squares mean” value ([1]; 10 mg once daily, FAS, n 24) of the same compound?
The value was 0.3655 L/min.

What about the “Change in PAWP at Day 84 or EOT compared to Baseline, Least squares mean” value ([1]; 10 mg once daily, FAS, n 24) of the same compound?
The value was 3.4038 mmHg.

And the “Change in SvO2 at Day 84 or EOT compared to Baseline, Least squares mean” value ([1]; 10 mg once daily, FAS, n 24)?
The value was 4.7801%.

And the “Change in TPR at Day 84 or EOT compared to Baseline, Least squares mean” value ([1]; 10 mg once daily, FAS, n 24)?
Its value is −1.4175 mmHg min/L.

What about the “PVR at Week 12/EOT, Mean (std)” value ([1]; 10 mg once daily, FAS, n 24) of the same compound?
The value was 2.555 (1.0607) WU.

What about the “PVR at Week 12/EOT, Median” value ([1]; 10 mg once daily, FAS, n 24) of the same compound?
Its value is 2.644 WU.

And the “TPG at Day 84 or EOT, mean (SD)” value ([1]; 10 mg once daily, FAS, n 24)?
The value was 12.13 (4.902) mmHg.

What about the “mPAP (end-expiratory mean line), change from baseline, Least squares mean” value ([1]; 10 mg once daily, FAS, n 24) of the same compound?
The value was −4.2251 mmHg.

And the “mRAP, change from baseline, Least squares mean” value ([1]; 10 mg once daily, FAS, n 24)?
The value was 0.6222 mmHg.

And the “Change in mPAP at Day 84 or EOT compared to Baseline, Least squares mean” value ([1]; 10 mg once daily, FAS, n 24, second mPAP section of Table 11)?
The value was −4.8854 mmHg.

What about the “Change in TPG, Comparison to Placebo, Difference of least squares mean” value ([1]; 10 mg once daily, FAS, listed as macitentan) of the same compound?
The value was −2.7 mmHg.

What about the “Change in mPAP, Comparison to Placebo, Difference of least squares mean” value ([1]; 10 mg once daily, FAS, second mPAP section of Table 11) of the same compound?
The value was −1.3035 mmHg.

And the “reduction in PVR for macitentan vs placebo” value ([1]; 10 mg once daily, Week 12)?
The value was 26%.

What about the “PVR Ratio to Baseline, Mean (std)” value [1, 4] of the same compound?
Its value is 0.585 (0.2280).

And the “PVR Ratio to Baseline, Median” value [1, 4]?
The value was 0.573.

What about the “patients with postbaseline PVR<3 WU, number” value [1, 5] of the same compound?
The value was 16.

And the “patients with postbaseline PVR<3 WU, percent” value [1, 5]?
The value was 66.7%.

What about the “PVR (Geometric mean ratio − 1) × 100%” value [1, 6] of the same compound?
The value was −26.3%.

And the “PVR Geometric Mean Ratio, comparison to placebo” value (from here on “PVR Geometric Mean Ratio”) [1, 6]?
The value was 0.7371.

And the “PVR (Geometric mean ratio − 1) × 100%” value [1, 7]?
Its value is −37.6%.

What about the “PVR Geometric Mean Ratio” value [1, 7] of the same compound?
Its value is 0.6236.

What about the “PVR (Geometric mean ratio − 1) × 100%” value [1, 8] of the same compound?
Its value is −26.1%.

And the “PVR Geometric Mean Ratio” value [1, 8]?
Its value is 0.7393.

What about the “PVR Geometric Mean Ratio” value ([1]; PVR calculated by programming, primary analysis, FAS, 10 mg once daily, Week 12, listed as macitentan) of the same compound?
Its value is 0.74.

And the “PVR (Geometric mean ratio − 1) × 100%” value [1, 9]?
Its value is −26.1%.

What about the “PVR Geometric Mean Ratio” value [1, 9] of the same compound?
Its value is 0.7386.

What about the “effect on PVR in words” value ([1]; early post-LVAD population) of the same compound?
Its value is “significantly reduced PVR”.

What about the “LV filling in words” value ([1]; from PAWP and CO data) of the same compound?
The value was “improved LV filling”.

And the “proportion with postbaseline PVR<3 WU” value ([1]; patients with baseline PVR<4 WU, n=10)?
Its value is 90.0%.

What about the “proportion with postbaseline PVR<3 WU” value ([1]; patients with baseline PVR>4 WU, n=14) of the same compound?
The value was 50.0%.

What about the “NT-proBNP at Week 12/EOT, Mean (std)” value ([2]; FAS, n 22) of the same compound?
The value was 2435.4 (2620.75) ng/L.

What about the “NT-proBNP at Week 12/EOT, Median” value ([2]; FAS, n 22) of the same compound?
Its value is 1098.0 ng/L.

And the “NT-proBNP (Geometric mean ratio − 1) × 100%” value ([2]; Week 12, FAS)?
Its value is 10.9%.

And the “NT-proBNP, Comparison to Placebo, Geometric Mean Ratio” value ([2]; Week 12, FAS)?
The value was 1.1086.

And the “NT-proBNP Ratio to Baseline, Mean (std)” value ([2]; Week 12: Baseline, FAS, n 22)?
Its value is 0.8 (0.57).

What about the “NT-proBNP Ratio to Baseline, Median” value ([2]; Week 12: Baseline, FAS, n 22) of the same compound?
Its value is 0.6.

What about the “WHO FC Improvement (change < 0), number of patients” value [3, 10] of the same compound?
The value was 10.

And the “WHO FC Improvement (change < 0), percent of patients” value [3, 10]?
Its value is 40.0%.

And the “WHO FC No change (change = 0), number of patients” value [3, 10]?
Its value is 13.

What about the “WHO FC No change (change = 0), percent of patients” value [3, 10] of the same compound?
Its value is 52.0%.

And the “WHO FC Worsening (change > 0), number of patients” value [3, 10]?
The value was 2.

What about the “WHO FC Worsening (change > 0), percent of patients” value [3, 10] of the same compound?
Its value is 8.0%.

And the “Change in WHO FC, Odds Ratio Macitentan relative to Placebo (95% Confidence Interval)” value ([3]; ordered logistic regression adjusting for baseline, higher OR = better change)?
Its value is 1.333 (0.417, 4.255).
